These are literature values, as cited in paper PMC8513935.

Data set [1] can be described thus: experimental, compiled by the authors from the literature (the ESI cites the sources).
Data set [2] is described as follows: derived by the authors as gas->solvent minus gas->water (a hypothetical dry solvent; the ESI), not a two-phase measurement.
The nature of data set [3]: log P octanol/water from commercial databases, averaged (the ESI). To be noted: Octanol (wet), 25 C.

As to `CN(C)C`, the log K of transfer, gas to solvent in data set [1] (Benzene, 25 C) is 2.05 log10 K; in data set [1] (Butan-1-ol, 25 C), 2.13 log10 K; in data set [1] (CCl4, 25 C) it was 2.12 log10 K; in data set [1] (Chlorobenzene, 25 C) it was 2.05 log10 K; in data set [1] (Chloroform, 25 C) it was 2.86 log10 K; in data set [1] (Cyclohexane, 25 C), 1.93 log10 K. Moreover, the log K of transfer, gas to solvent in data set [1] (Diethyl Ether, 25 C) is 1.73 log10 K; in data set [1] (Ethanol, 25 C), 2.67 log10 K; in data set [1] (Hexadecane, 25 C), 1.62 log10 K; in data set [1] (Hexane, 25 C), 1.93 log10 K; in data set [1] (Octan-1-ol, 25 C), 1.94 log10 K; in data set [1] (Propan-1-ol, 25 C), 2.56 log10 K. In addition, the log K of transfer, gas to solvent in data set [1] (Propanone, 25 C) was 1.88 log10 K; in data set [1] (Toluene, 25 C), 1.99 log10 K; in data set [1] (Water, 25 C), 2.35 log10 K. Also, the log K of transfer, water to solvent in data set [2] (Acetone, 25 C) is -0.47 log10 K; in data set [2] (Benzene, 25 C), -0.3 log10 K; in data set [2] (Butan-1-ol, 25 C), -0.22 log10 K; in data set [2] (CCl4, 25 C), -0.23 log10 K; in data set [2] (Chlorobenzene, 25 C), -0.3 log10 K; in data set [2] (Chloroform, 25 C), 0.51 log10 K. The log K of transfer, water to solvent in data set [2] (Cyclohexane, 25 C) is -0.42 log10 K; in data set [2] (Diethyl Ether, 25 C), -0.62 log10 K; in data set [2] (Ethanol, 25 C) it was 0.32 log10 K; in data set [2] (Hexadecane, 25 C) it was -0.73 log10 K; in data set [2] (Hexane, 25 C), -0.424 log10 K; in data set [2] (Octan-1-ol(dry), 25 C), -0.41 log10 K. In addition, the log K of transfer, water to solvent is 0.21 log10 K in data set [2] (Propan-1-ol, 25 C); -0.36 log10 K in data set [2] (Toluene, 25 C); 0.19 log10 K in data set [3].

As for `CCCCCCl`, the log K of transfer, gas to solvent in data set [1] (Di-n-butyl ether, 25 C) was 3.51 log10 K; in data set [1] (Hexadecane, 25 C) it was 3.22 log10 K; in data set [1] (Hexane, 25 C), 3.5 log10 K; in data set [1] (Propanone, 25 C), 3.56 log10 K; in data set [1] (Tetrahydrofuran, 25 C), 4.16 log10 K; in data set [1] (Water, 25 C), 0.05 log10 K. Further, the log K of transfer, water to solvent is 3.51 log10 K in data set [2] (Acetone, 25 C); 3.46 log10 K in data set [2] (Di-n-butyl ether, 25 C); 3.17 log10 K in data set [2] (Hexadecane, 25 C); 3.45 log10 K in data set [2] (Hexane, 25 C); 4.11 log10 K in data set [2] (Tetrahydrofuran, 25 C); 3.11 log10 K in data set [3].

Consider `CC(C)SC(C)C`, for which the log K of transfer, gas to solvent was 3.54 log10 K in data set [1] (Hexadecane, 25 C) and 0.89 log10 K in data set [1] (Water, 25 C). For the same compound, the log K of transfer, water to solvent is 2.65 log10 K in data set [2] (Hexadecane, 25 C) and 2.52 log10 K in data set [3].

Regarding `Cc1ccccn1`, the log K of transfer, gas to solvent was 4.54 log10 K in data set [1] (2-Methylpropan-1-ol, 25 C); 4.33 log10 K in data set [1] (2-Methylpropan-2-ol, 25 C); 4.3 log10 K in data set [1] (Benzene, 25 C); 4.4 log10 K in data set [1] (Butan-2-ol, 25 C); 5.12 log10 K in data set [1] (Chloroform, 25 C); 3.7 log10 K in data set [1] (Cyclohexane, 25 C). The log K of transfer, gas to solvent is 3.42 log10 K in data set [1] (Hexadecane, 25 C); 4.31 log10 K in data set [1] (Propan-2-ol, 25 C); 3.4 log10 K in data set [1] (Water, 25 C). The log K of transfer, water to solvent in data set [2] (2-Methylpropan-1-ol, 25 C) is 1.14 log10 K; in data set [2] (2-Methylpropan-2-ol, 25 C), 0.93 log10 K; in data set [2] (Benzene, 25 C) it was 0.9 log10 K; in data set [2] (Butan-2-ol, 25 C) it was 0.999 log10 K; in data set [2] (Chloroform, 25 C), 1.72 log10 K; in data set [2] (Cyclohexane, 25 C) it was 0.3 log10 K. The log K of transfer, water to solvent in data set [2] (Hexadecane, 25 C) is 0.022 log10 K; in data set [2] (Propan-2-ol, 25 C), 0.91 log10 K; in data set [3], 1.12 log10 K.

On to `CCCC(C)O` (stereo not drawn), for which the log K of transfer, gas to solvent is 4 log10 K in data set [1] (1,2-Dichloroethane, 25 C); 3.45 log10 K in data set [1] (CCl4, 25 C); 2.84 log10 K in data set [1] (Hexadecane, 25 C); 3.22 log10 K in data set [1] (Water, 25 C). The log K of transfer, water to solvent in data set [2] (1,2-Dichloroethane, 25 C) is 0.78 log10 K; in data set [2] (CCl4, 25 C), 0.23 log10 K; in data set [2] (Hexadecane, 25 C), -0.38 log10 K; in data set [3], 1.25 log10 K.

With `C=CC`, the log K of transfer, gas to solvent in data set [1] (2-Methylpropan-1-ol, 25 C) was 0.95 log10 K; in data set [1] (2-Methylpropan-2-ol, 25 C), 0.99 log10 K; in data set [1] (3-Methylbutan-1-ol, 25 C), 0.963 log10 K; in data set [1] (Butan-1-ol, 25 C) it was 1.03 log10 K; in data set [1] (Butan-2-ol, 25 C) it was 0.97 log10 K; in data set [1] (Butanone, 25 C), 1.13 log10 K. In addition, the log K of transfer, gas to solvent in data set [1] (CCl4, 25 C) is 1.35 log10 K; in data set [1] (Hexadecane, 25 C), 0.946 log10 K; in data set [1] (Hexane, 25 C) it was 1.29 log10 K; in data set [1] (Methanol, 25 C) it was 0.95 log10 K; in data set [1] (Pentan-1-ol, 25 C), 0.97 log10 K; in data set [1] (Propan-1-ol, 25 C) it was 0.99 log10 K. The log K of transfer, gas to solvent in data set [1] (Propan-2-ol, 25 C) was 0.97 log10 K; in data set [1] (Water, 25 C), -0.97 log10 K. In addition, the log K of transfer, water to solvent was 1.92 log10 K in data set [2] (2-Methylpropan-1-ol, 25 C); 1.96 log10 K in data set [2] (2-Methylpropan-2-ol, 25 C); 1.93 log10 K in data set [2] (3-Methylbutan-1-ol, 25 C); 2 log10 K in data set [2] (Butan-1-ol, 25 C); 1.94 log10 K in data set [2] (Butan-2-ol, 25 C); 2.1 log10 K in data set [2] (Butanone, 25 C). Also, the log K of transfer, water to solvent in data set [2] (CCl4, 25 C) is 2.32 log10 K; in data set [2] (Hexadecane, 25 C), 1.92 log10 K; in data set [2] (Hexane, 25 C) it was 2.25 log10 K; in data set [2] (Methanol, 25 C), 1.92 log10 K; in data set [2] (Pentan-1-ol, 25 C) it was 1.94 log10 K; in data set [2] (Propan-1-ol, 25 C) it was 1.96 log10 K. Also, the log K of transfer, water to solvent is 1.94 log10 K in data set [2] (Propan-2-ol, 25 C) and 1.77 log10 K in data set [3].

For `CCCC(=O)CCC`, the log K of transfer, gas to solvent is 4.12 log10 K in data set [1] (Di-n-butyl ether, 25 C); 3.7 log10 K in data set [1] (Hexadecane, 25 C); 4.23 log10 K in data set [1] (Methanol, 25 C); 2.25 log10 K in data set [1] (Water, 25 C). For the same compound, the log K of transfer, water to solvent is 1.87 log10 K in data set [2] (Di-n-butyl ether, 25 C); 1.45 log10 K in data set [2] (Hexadecane, 25 C); 1.98 log10 K in data set [2] (Methanol, 25 C); 2.04 log10 K in data set [3].
